Key:
[1] = biological target: T1, wild type AXL (wtAXL) receptor tyrosine kinase (Homo sapiens, UniProt P30530); experiment: NIH-3T3-AXL cellular tyrosine kinase assay (inhibition of AXL phosphorylation); type: cell-based; conditions: AXL phosphorylation in NIH-3T3-AXL (clone 22) cells, serum-depleted, 2 h with compound, immunoprecipitation / anti-phosphotyrosine blot
T1 construct: WtAXL cDNA was cloned into vector pLXSN(ESK) and transfected into Phoenix E packaging cells; expressed in transfected cells; host or cells: NIH3T3 N7 mouse fibroblasts, retrovirally infected (clone 22)
T1 sequence (P30530 26-894): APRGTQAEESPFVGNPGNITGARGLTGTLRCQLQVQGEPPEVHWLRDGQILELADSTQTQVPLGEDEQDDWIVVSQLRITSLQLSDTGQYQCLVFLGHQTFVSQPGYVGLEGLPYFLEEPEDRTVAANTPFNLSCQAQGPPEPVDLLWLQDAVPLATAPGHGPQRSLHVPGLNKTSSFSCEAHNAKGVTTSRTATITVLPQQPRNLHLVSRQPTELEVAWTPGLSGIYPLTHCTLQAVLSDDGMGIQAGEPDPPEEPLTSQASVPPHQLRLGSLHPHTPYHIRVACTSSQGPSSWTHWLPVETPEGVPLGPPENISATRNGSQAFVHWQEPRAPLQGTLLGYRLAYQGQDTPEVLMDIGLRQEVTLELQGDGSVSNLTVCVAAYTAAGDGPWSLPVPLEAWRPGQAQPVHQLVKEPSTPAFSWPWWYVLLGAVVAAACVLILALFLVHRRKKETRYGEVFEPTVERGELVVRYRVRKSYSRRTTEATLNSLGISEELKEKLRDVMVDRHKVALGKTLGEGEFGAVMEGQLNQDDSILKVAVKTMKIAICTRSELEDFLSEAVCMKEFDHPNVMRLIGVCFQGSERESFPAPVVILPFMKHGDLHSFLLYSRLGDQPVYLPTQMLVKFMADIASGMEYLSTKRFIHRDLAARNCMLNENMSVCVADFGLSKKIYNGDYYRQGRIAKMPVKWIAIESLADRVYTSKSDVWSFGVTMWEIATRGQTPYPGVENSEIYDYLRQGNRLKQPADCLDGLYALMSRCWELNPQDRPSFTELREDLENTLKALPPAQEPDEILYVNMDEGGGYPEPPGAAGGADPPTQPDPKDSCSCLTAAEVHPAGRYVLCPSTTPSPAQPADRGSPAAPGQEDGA
Method: 3) Inhibitory Activity of Compounds on Axl Phosphorylation in NIH-3T3-AXL Cellular Tyrosine Kinase Assay
The viral supernatant was collected and used to infect target cells NIH3T3 N7. Monoclonal NIH3T3-AXL cell lines stably expressing wtAXL were generated by selecting retrovirally infected cells in medium containing puromycin (2 μg/ml) and subsequent clonal separation.
NIH-3T3-AXL Cellular Kinase Assay
Serial dilutions of compounds were added, and the cells were further incubated or 2 h. […] The clarified cell lysate (10 min at 13000 rpm at 4° C.) were used for immunoprecipitation. Equal amounts of protein were mixed with 2 μg anti-AXL polyclonal antibody (homemade) and 20 μl Protein A sepharose beads, and rotated for 6 hr at 4° C. After immunoprecipitation, the beads were washed three times with 1×HNTG (50 mM HEPES (pH 7.5), 150 mM NaCl, 10% Glycerol, 0.2% Triton X-100). The final pellet was suspended in 20 μl 2× Laemmli buffer, and boiled for 5 min at 100° C. […] The membrane was then incubated with anti-phosphotyrosine antibody (4G10) overnight at 4° C. followed by washing with 1×TBST buffer three times. After incubating membrane with HRP-conjugated anti-mouse secondary antibody for 1 hour at room temperature followed by washing with 1×TBST buffer three times, the proteins were visualized by ECL.

Compound: COc1cc2nccc(Oc3ccc(NS(=O)(=O)c4ccc(Br)c(Cl)c4)c(F)c3)c2cc1OC [Example A60, 4-Bromo-3-chloro-N-[4-(6,7-dimethoxy-quinolin-4-yloxy)-2-fluoro-phenyl]-benzenesulfonamide]
- melting point: 231 to 232 °C
- IC50 [1]: 800 nM

Compound: COc1cc(S(=O)(=O)Nc2ccc(Oc3ccnc4cc(OC)c(OC)cc34)cc2F)ccc1F [Example A61, N-[4-(6,7-Dimethoxy-quinolin-4-yloxy)-2-fluoro-phenyl]-4-fluoro-3-methoxy-benzenesulfonamide]
- melting point: 214 to 216 °C
- IC50 [1]: 700 nM

Compound: CCOc1ccc(S(=O)(=O)Nc2ccc(Oc3ccnc4cc(OC)c(OC)cc34)cc2F)cc1C [Example A62, N-[4-(6,7-Dimethoxy-quinolin-4-yloxy)-2-fluoro-phenyl]-4-ethoxy-3-methyl-benzenesulfonamide]
- melting point: 158 to 160 °C
- IC50 [1]: 470 nM

Compound: COc1cc2nccc(Oc3ccc(NS(=O)(=O)c4ccc(OC)c5ccccc45)c(F)c3)c2cc1OC [Example A63, 4-Methoxy-naphthalene-1-sulfonic acid [4-(6,7-dimethoxy-quinolin-4-yloxy)-2-fluoro-phenyl]-amide]
- melting point: 226 to 227 °C
- IC50 [1]: > 1000 nM

Compound: COc1cc2nccc(Oc3ccc(NS(=O)(=O)c4cc(C)c(C)cc4OC)c(F)c3)c2cc1OC [Example A64, N-[4-(6,7-Dimethoxy-quinolin-4-yloxy)-2-fluoro-phenyl]-2-methoxy-4,5-dimethyl-benzenesulfonamide]
- melting point: 238 to 240 °C
- IC50 [1]: > 1000 nM

Compound: COc1cc2nccc(Oc3ccc(NS(=O)(=O)c4cc(C)ccc4NC(C)=O)cc3)c2cc1OC [Example A65, N-{2-[4-(6,7-Dimethoxy-quinolin-4-yloxy)-phenylsulfamoyl]-4-methyl-phenyl}-acetamide]
- melting point: 134 to 136 °C
- IC50 [1]: > 10000 nM

Compound: COc1cc2nccc(Oc3ccc(NS(=O)(=O)c4cc(C)c(NC(C)=O)c(C)c4)cc3)c2cc1OC [Example A66, N-{4-[4-(6,7-Dimethoxy-quinolin-4-yloxy)-phenylsulfamoyl]-2,6-dimethyl-phenyl}-acetamide]
- melting point: 145 to 147 °C
- IC50 [1]: > 10000 nM

Compound: COc1ccc(S(=O)(=O)Nc2ccc(Oc3ccnc4cc(OC)c(OC)cc34)cc2)cc1Cl [Example A67, 3-Chloro-N-[4-(6,7-dimethoxy-quinolin-4-yloxy)-phenyl]-4-methoxy-benzenesulfonamide]
- melting point: 226 to 227 °C
- IC50 [1]: > 10000 nM

Compound: COc1cc2nccc(Oc3ccc(NS(=O)(=O)c4cc(Cl)ccc4OC)cc3)c2cc1OC [Example A68, 5-Chloro-N-[4-(6,7-dimethoxy-quinolin-4-yloxy)-phenyl]-2-methoxy-benzenesulfonamide]
- melting point: 255 to 257 °C
- IC50 [1]: > 10000 nM

Compound: COc1cc2nccc(Oc3ccc(NS(=O)(=O)c4cc(Cl)c(C)cc4OC)cc3)c2cc1OC [Example A69, 5-Chloro-N-[4-(6,7-dimethoxy-quinolin-4-yloxy)-phenyl]-2-methoxy-4-methyl-benzenesulfonamide]
- melting point: 236 to 238 °C
- IC50 [1]: > 10000 nM

Compound: COc1cc2nccc(Oc3ccc(NS(=O)(=O)c4ccc(OC)c(C(C)(C)C)c4)cc3)c2cc1OC [Example A70, 3-tert-Butyl-N-[4-(6,7-dimethoxy-quinolin-4-yloxy)-phenyl]-4-methoxy-benzenesulfonamide]
- melting point: 229 to 231 °C
- IC50 [1]: > 10000 nM

Compound: CCCCS(=O)(=O)Nc1ccc(Oc2ccnc3cc(OC)c(OC)cc23)cc1F [Example A71, Butane-1-sulfonic acid [4-(6,7-dimethoxy-quinolin-4-yloxy)-2-fluoro-phenyl]-amide]
- melting point: 164 to 166 °C
- IC50 [1]: > 3000 nM

Compound: COc1cc2nccc(Oc3ccc(NS(=O)(=O)CC(C)C)c(F)c3)c2cc1OC [Example A72, 2-Methyl-propane-1-sulfonic acid [4-(6,7-dimethoxy-quinolin-4-yloxy)-2-fluoro-phenyl]-amide]
- melting point: 175 to 176 °C
- IC50 [1]: 580 nM

From patent US9206130B2, “Quinoline derivatives as AXL kinase inhibitors” (Max-Planck-Gesellschaft zur Förderung der Wissenschaften …, priority 2008, dated 2015)
